Reference: patent US4602015A, “2-piperazinopyrimidine salt and pharmaceutical compositions containing it” (priority 1983, dated 1986)

What was measured:
[1] = test system: prochlorperazine-induced catalepsy; assay: antagonism of prochlorperazine-induced catalepsy (cork test, oral); assay type: in vivo, Wistar male rats; details: rat; for Prochlorperazine Catal. antag. ED50: 1 h before prochlorperazine 10 mg/kg s.c., interval in parentheses printed on next line: napsilate (5.0-6.4), base (12-45)
Method: The antidepressive activity of the compound of the invention has been evaluated in the test of antagonism of prochlorperazine-induced catalepsy (K. Biziere et al., Arzneimittel Forschung, 1982, 32 (II), 824-831). The 2-(1-piperazinyl)pyrimidine napsilate and the corresponding free base, as reference compound, were administered orally to groups of 10 Wistar male rats weighing 220-240 g; at the same time control animals were treated with saline. One hour later, prochlorperazine was administered subcutaneously at a dose of 10 mg/kg. Five hours after this administration, the number of cataleptic animals was assessed by the cork test. According to this test the animals were placed with their forepaws on a stand formed by three superposed corks (11 cm total height) and forced to maintain this position for 20 seconds at least. The performances of each group of animals were compared with those of the controls having received the vehicle and prochlorperazine only.

[2] = test system: rotational behaviour after unilateral lesion of the striatum; assay: rotational behaviour in mice after unilateral 6-hydroxydopamine lesion of the striatum; assay type: in vivo, Female Charles River CD1 mice; details: for Variation % of turns as compared to controls: Table II, mouse, oral, 1 h after administration, doses 0.15 (base), 0.18 (hydrochloride), 0.34 (napsilate) mg/kg = 0.15 mg/kg free base, ** p < 0.01, ns not significant
Text: (§1) The dopaminergic mechanism of the compound of the invention was studied in comparison with the corresponding free base and its hydrochloride by analysing the rotational behaviour in mice after unilateral lesion of the striatum (P. Protais et al., J. Pharmacol. 1976, 7, 251-255).
(§2) Female Charles River CD1 mice weighing 20-24 g were previously subjected to a unilateral lesion of the striatum by stereotaxic injection of 8 mcg/animal of 6-hydroxydopamine. A week later, the 2-(1-piperazinyl)-pyrimidine napsilate, the 2-(1-piperazinyl)pyrimidine hydrochloride and the free base were administered by oral route to groups of six mice at a dose corresponding to 0.15 mg/kg of free base. The number of turns was recorded, during 2 minutes, one hour after the administration of the three products. The turns ipsilateral to the lesion were plotted as positive values, the contralateral turns were plotted as negative values. The algebric sum of turns for each group of treated animals was compared to that of control animals treated with the vehicle (saline) only.

[3] = test system: rotational behaviour after unilateral lesion of the striatum; assay: rotational behaviour in lesioned mice, time course 60, 180 and 360 minutes; assay type: in vivo, Female Charles River CD1 mice; details: for Variation % of turns after 60 minutes: Table III, mouse, oral, dose corresponding to 0.15 mg/kg free base, ** p < 0.01, ns not significant
Text: as §1, §2
The dopaminergic action of the compound of the present invention has also been evaluated in the time in comparison with the corresponding free base and the hydrochloride thereof.

[4] = psychotropic activity (general statement); assay type: in vivo
[5] = test system: rotational behaviour after unilateral lesion of the striatum; assay: rotational behaviour in lesioned mice, time course 60, 180 and 360 minutes; assay type: in vivo, Female Charles River CD1 mice; details: Table III, mouse, oral, dose corresponding to 0.15 mg/kg free base, ** p < 0.01, ns not significant
[6] = H. W. Stewart et al., J. Org. Chem. 1953; cited from earlier work

In the case of `c1cnc(N2CCNCC2)nc1` [2-(1-piperazinyl)pyrimidine napsilate, 2-(1-piperazinyl)pyrimidine 2-naphtalenesulfonate], the “Prochlorperazine Catal. antag. ED50” value [1] is reported as 5.7 mcmol/kg, the “oral activity relative to corresponding free base (times more active)” value ([1]; ratio versus free base) is reported as “about 4 times” and the “Variation % of turns as compared to controls” value (shortened to “Variation % … to controls”) [2] is reported as -117%. The “dopaminergic activity (in words)” value ([2]; comment on Table II) was “dopaminergic activity higher than that of the free base”, the “negative variation of turns” value ([2]; comment on Table II, contralateral turns exceed ipsilateral turns) was “higher than 100%” and the “Variation % of turns after 60 minutes” value [3] was -117%. For the same compound, the “activity with time (in words)” value ([3]; comment on Table III) was “increases significantly with the time”, the “potency versus reference products (in words)” value ([3]; comment on Table III, versus free base and hydrochloride) was “more potent than the reference products” and the “psychotropic activity (in words)” value ([4]; dopaminergic mechanism, antipsychotic, antidepressive, tranquillizing-sedative) was “very good psychotropic activity”. For the same compound, the “activity versus free base and hydrochloride (in words)” value ([4]; in the absolute sense) was “much more active”, the “duration of activity (in words)” value ([4]; in vivo) was “long-lasting and increases with time” and the “Variation % of turns after 180 minutes” value [5] was -126%. For the same compound, the “Variation % of turns after 360 minutes” value [5] was -147%.

With `c1cnc(N2CCNCC2)nc1` [2-(1-piperazinyl)pyrimidine base, 2-(1-piperazinyl)pyrimidine] the “Prochlorperazine Catal. antag. ED50” value [1] was 24 mcmol/kg, the “Variation % … to controls” value [2] was -94% and the “effect on algebric sum of turns (in words)” value ([2]; comment on Table II) was “significantly reduces the algebric sum of turns”. The “Variation % of turns after 60 minutes” value [3] was -94%, the “activity with time (in words)” value ([3]; comment on Table III) was “tends to decrease with the time” and the “Variation % of turns after 180 minutes” value [5] was -62%. For the same compound, the “Variation % of turns after 360 minutes” value [5] was -60% and the “analgesic or antifilarial activity (in words)” value [6] was “none of which has shown analgesic or antifilarial activity”.

With `Cl.c1cnc(N2CCNCC2)nc1` [2-(1-piperazinyl)pyrimidine hydrochloride] the “Variation % … to controls” value [2] was -29%, the “dopaminergic activity (in words)” value ([2]; comment on Table II) was “nearly inactive” and the “effect on algebric sum of turns (in words)” value ([2]; comment on Table II) was “no significant effect”. The “Variation % of turns after 60 minutes” value [3] was -29%, the “activity with time (in words)” value ([3]; comment on Table III) was “inactive with the time too” and the “Variation % of turns after 180 minutes” value [5] was -28%. The “Variation % of turns after 360 minutes” value [5] was -22%.
